Measurements published in patent US8153773B2, “Synthesis and use of anti-reverse phosphorothioate analogs of the messenger RNA cap” (Board of Supervisors of Louisiana State University and …, priority 2007, dated 2012).

Tests used:
hDcp2 [1] = molecular target: T1, hDcp2 (Homo sapiens, UniProt Q8IU60); details: Grudzien et al. 2006; cited from earlier work
hDcp2 [2] = molecular target: T1, hDcp2; experiment: In vitro RNA decapping assay with recombinant hDcp2; format: biochemical; details: capped 32P-labeled short RNA, recombinant hDcp2, anion exchange HPLC (FIG. 6)
Description: Dcp2 activity was measured with capped 48-nt oligonucleotides as substrates, a truncated form of luciferase mRNA (48 nucleotides). GST-hDcp2 was expressed in Escherichia coli and purified as described by Z. Wang et al., “The hDcp2 protein is a mammalian mRNA decapping enzyme,” Proc. Natl. Acad. Sci. U.S.A., vol. 99, pp. 12663-12668 (2002). Capped oligonucleotides were first subjected to digestion with GST-hDcp2 at 37° C. for 2 h in decapping buffer (10 mM Tris-HCl, pH 7.5, 100 mM potassium acetate, 2 mM magnesium acetate, 0.5 mM MnCl2, 2 mM dithiothreitol, and 0.1 mM spermine). See C. Piccirillo et al., “Functional characterization of the mammalian mRNA decapping enzyme hDcp2,” RNA, vol. 9, pp. 1138-1147 (2003). The reaction mixture was then extracted once with an equal volume of phenol and twice with chloroform, and RNA was precipitated with ethanol. Products of the decapping reaction were further digested with a cocktail of ribonucleases (RiboShredder; Epicentre) at 37° C. for 1 h. The products were resolved by anion-exchange HPLC on a 4.6×250-mm Partisil 10SAX/25 column (Whatman). The gradient consisted of water for 1 min, a linear gradient to 112 mM KH2PO4, pH 4.5, for 20 min, a linear gradient of 112-450 mM KH2PO4 for 15 min, a linear gradient of 450 mM to 1.5 M KH2PO4 for 15 min, and isocratic elution at 1.5 M of KH2PO4 for 9 min, all at a flow rate 1 ml/min.
We tested oligonucleotides capped with either of S-ARCAs for hydrolysis by recombinant hDcp2 to test whether mRNA capped with the various diastereomers of m2^7,2′-OGpppsG and m2^7,2′-OGppspG would differ in their sensitivity to cleavage by Dcp1/Dcp2. See generally Z. Wang et al., “The hDcp2 protein is a mammalian mRNA decapping enzyme,” Proc. Natl. Acad. Sci. U.S.A., vol. 99, pp. 12663-12668 (2002), and Z. Wang et al., “An mRNA Stability Complex Functions with Poly(A)-Binding Protein To Stabilize mRNA In Vitro”, Mol. Cell. Biol., vol. 19, pp. 4552-4560 (1999). Cap analogs used were initially unlabeled, so to follow the products of the digestion reaction we synthesized capped oligonucleotides in the presence of [α-^32P]GTP and a DNA template in which G was the first ribonucleotide specified after the promoter. The oligonucleotides capped with either of the S-ARCAs were subjected to Dcp2 digestion in vitro, after which the products were further digested with a cocktail of ribonucleases (RiboShredder from Epicenter). Any nucleotide on the 5′ side of a G residue acquired a ^32P-labeled 3′-phosphate group after ribonuclease digestion by nearest-neighbor transfer. Anion exchange chromatography was then used to resolve the labeled 3′-nucleoside monophosphates (3′-NMP*), at internal positions in the RNA, from labeled 5′-terminal products (FIG. 6). The latter comprise p3 Gp* derived from uncapped transcripts and m2^7,2′-OGp3 Gp* (when m2^7,2′-OGp3G was used), or pGp* resulting from capped RNA resistant or nonresistant to enzymatic cleavage, respectively. All cap analogs used were ARCAs, which ensured that they were incorporated into RNA exclusively in the correct orientation. This further guaranteed that only one 5′-terminal product (m2^7,2′-OGp3 Gp*) was observed upon ribonuclease treatment. Uncapped RNA is not a substrate for Dcp2, which explains why p3 Gp* product was observed after Dcp2 digestion.
See E. Grudzien et al., “Differential inhibition of mRNA degradation pathways by novel cap analogs,” J. Biol. Chem., vol. 281, pp. 1857-1867 (2006).

murine eIF4E (28-217) = molecular target: T2, murine eIF4E (28-217) (Mus musculus, UniProt P63073); experiment: Binding affinities for eIF4E by fluorescence quenching; details: murine eIF4E (28-217)
T2 construct: (28-217) to phosphorothioate cap analogs, as determined
Description: Binding affinities of S analogs for murine eIF4E were determined by fluorescence quenching. Fluorescence titration measurements were carried out on an LS-50B spectrofluorometer (Perkin Elmer Co.) in 50 mM HEPES/KOH (pH 7.2), 100 mM KCl, 0.5 mM EDTA, 1 mM DTT at 20.0±0.2° C. Aliquots of 1 μl increasing concentration of cap analogue solutions were added to 1.4 ml of […] solutions. Fluorescence intensities (excitation at 280 nm with 2.5 nm bandwidth and detection at 337 nm with 4 nm bandwidth and 290 nm cut-off filter) were corrected taking into account sample dilution and the inner filter effect. Equilibrium association constants (KAS) were determined by fitting the theoretical dependence of the fluorescence intensity on the total concentration of cap analogue to the experimental data points according to equation described previously (See A. Niedzwiecka et al., “Biophysical studies of eIF4E cap-binding protein: recognition of mRNA 5′ cap structure and synthetic fragments of eIF4G and 4E-BP1 proteins,” J. Mol. Biol., vol. 319, pp. 615-635 (2002)). The concentration of protein was fitted as a free parameter of equilibrium equation showing amount of “active” protein. The final KAS was calculated as a weighted average of three to ten independent titrations, with the weights taken as the reciprocals of the numerical standard deviations squared. Numerical nonlinear least-squares regression analysis was performed using ORGIN 6.0 (Microcal Software Inc., USA). The Gibbs free energy of binding was calculated from the KAS value according to the standard equation ΔG°=−RTlnKAS.

DcpS [3] = molecular target: T3, DcpS (Caenorhabditis elegans, UniProt G5EFS4); experiment: Enzymatic hydrolysis by C. elegans DcpS; format: biochemical; set-up: key: the analogs assigned as resistant remained completely undigested under the applied conditions; the analogs assigned as hydrolyzed were hydrolyzed by DcpS with efficiency comparable to the respective unmodified parent compound; details: conditions giving complete degradation of unmodified parent within 40-90 min, RP HPLC
T3 sequence (G5EFS4 1-311): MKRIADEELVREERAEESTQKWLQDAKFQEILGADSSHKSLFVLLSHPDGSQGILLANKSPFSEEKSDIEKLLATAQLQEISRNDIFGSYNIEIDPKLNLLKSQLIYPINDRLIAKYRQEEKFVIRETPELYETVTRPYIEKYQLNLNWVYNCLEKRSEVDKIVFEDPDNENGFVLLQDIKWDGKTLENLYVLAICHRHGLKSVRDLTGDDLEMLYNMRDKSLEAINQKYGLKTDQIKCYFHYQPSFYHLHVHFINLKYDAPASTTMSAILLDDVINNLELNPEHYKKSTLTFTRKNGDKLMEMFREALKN
Description: (§1) Human and nematode DcpS were expressed in Escherichia coli according to the procedures described previously (L. S. Cohen et al., “Nematode m7 GpppG and m3(2,2,7)GpppG decapping: activities in Ascaris embryos and characterization of C. elegans scavenger DcpS,” RNA, vol. 10, pp. 1609-1624 (2004)). Both proteins were stored at −80° C. in 20 mM Tris buffer, pH 7.5, containing 50 mM KCl, 0.2 mM EDTA, 1 mM DTT, 0.5 mM PMSF, and 20% glycerol. An appropriate cap analog at 1 mM concentration was treated with 5.0 or 7.0 μl of DcpS (from human or C. elegans, respectively) in 500 μl of 50 mM TRIS buffer, pH=7.9, containing 20 mM of MgCl2 and 60 mM of (NH4)2SO4 at 37° C. for 60-90 min. Every 15-20 min a 100 μl sample was collected from the reaction mixture and deactivated by incubation in 90° C. for 3 min. Collected samples were analyzed without further treatment by analytical RP HPLC using a linear gradient of methanol in 0.1 M KH2PO4, pH=6.0, from 0-50% within 15 min and UV-detection at 260 nm.
(§2) The new series of S-analogs were subjected to in vitro enzymatic hydrolysis catalyzed by DcpS from both human and C. elegans sources. In all experiments, the corresponding unmodified cap analog was used as a positive control, i.e., m^7GpppG for non-ARCA S-analogs and m2^7,2′-OGpppG for S-ARCAs. The amount of DcpS enzyme was optimized to provide complete degradation of the control substrate within 40-90 min. The samples collected from reaction mixtures at various time intervals were analyzed by RP HPLC (as described in Materials and Methods).
(§3) In Table 4, cap analogs at 4 μM concentration were subjected to enzymatic digestion by DcpS in conditions leading to complete degradation of the unmodified parent compound (i.e. m^7GpppG for non-ARCA S-analogs and m2^7,2′-OGpppG for ARCAs) within 40-90 min. Samples collected from reaction mixtures at various time intervals were analysed by RP HPLC with UV detection at 260 nm as described in Materials and Methods. […] The result was unchanged even if the reaction time was extended to 24 h, various amounts of enzyme were used, and composition of the reaction buffer was modified.

DcpS [4] = molecular target: T4, DcpS (Homo sapiens, UniProt Q96C86); experiment: Enzymatic hydrolysis by human DcpS; format: biochemical; set-up: key: the analogs assigned as resistant remained completely undigested under the applied conditions; the analogs assigned as hydrolyzed were hydrolyzed by DcpS with efficiency comparable to the respective unmodified parent compound; details: conditions giving complete degradation of unmodified parent within 40-90 min, RP HPLC
T4 sequence (Q96C86 1-337): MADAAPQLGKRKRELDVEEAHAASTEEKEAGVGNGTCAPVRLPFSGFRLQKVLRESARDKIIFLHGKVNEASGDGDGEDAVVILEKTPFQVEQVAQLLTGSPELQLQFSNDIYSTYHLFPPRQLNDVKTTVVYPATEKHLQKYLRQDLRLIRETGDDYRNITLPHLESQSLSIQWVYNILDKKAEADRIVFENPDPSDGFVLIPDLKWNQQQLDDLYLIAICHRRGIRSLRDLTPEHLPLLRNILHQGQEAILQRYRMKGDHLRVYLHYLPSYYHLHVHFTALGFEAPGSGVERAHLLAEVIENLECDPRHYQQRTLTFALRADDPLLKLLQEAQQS
Description: as §1, §2, §3

HC11 cells = experiment: Translational efficiency of capped luciferase mRNA in HC11 cells; format: cell-based, mouse; details: Luc-A60 mRNA capped with the analog in HC11 cells, relative to m^7Gp3G-capped mRNA
Description: Two methods, electroporation and nucleoporation, were used to deliver RNA into cells. In case of electroporation, 5 μg of RNA were introduced into 10^7 HC11 cells in a total volume 400 μl of serum-reduced RPMI 1640 medium in a Gene pulser cuvette (4 mm gap) with a Bio-Rad Genepulser™ set at 0.22 kV and 960 μF. Following discharge, the cells were washed twice with PBS, centrifuged for 2 min 300×g at room temperature, resuspended in prewarmed complete medium, and placed at 37° C. Nucleoporation was performed with an Amaxa Nucleofector II (Amaxa Biosystems) in accordance with manufacture's recommendations. One microgram of RNA was introduced into 10^6 HC11 cells with Nucleofector Solution V and the set of recommended regimens (program T-024).
For measurement of translational efficiency, cells were divided into several Eppendorf tubes, placed in a water bath at 37° C., and shaken. For measurement of mRNA stability, cells were distributed into 35-mm cell culture dishes and placed at 37° C. in a 5% CO2 humidified atmosphere. Cells were harvested at various times and washed twice with PBS.
For cytoplasmic RNA extraction, 2×10^5 cells were lysed in 175 μl of lysis buffer (50 mM Tris-HCl, pH 8.0, 140 mM NaCl, 1.5 mM MgCl2, 0.5% (v/v) Igepal (Sigma), and 1 mM dithiothreitol). RNAs were further purified using the RNeasy mini kit. For protein extraction, 2×10^5 cells were lysed in 200 μl of Luciferase Cell Culture Lysis Reagent (Promega). Luciferase activity of cell extracts was measured according to the manufacturer's protocol (Promega).
We also determined the translational efficiency in cultured cells for luciferase mRNA capped with S-ARCAs. This involved two measurements conducted at various times following nucleoporation—luciferase activity measured by luminometry in cleared cell lysates, and Luc-A60 levels measured by real-time PCR. Luciferase activity was normalized by the amount of luciferase mRNA that had been delivered into cells. To determine the amount of RNA present in the cells at a time immediately after nucleoporation, i.e., before any decay had occurred, cells were harvested at various times between 2 to 8 h post-nucleoporation, and cytoplasmic RNA was extracted. The amount of luciferase mRNA was measured by real time PCR using primers that amplify sequences near the 5′-end. Luciferase mRNA remaining at each time point was plotted as log10 ([RNA]) versus time to determine t1/2. The curve was extrapolated to 0 h, and the amount of RNA delivered into the cells was calculated. We defined conditions under which the accumulation of luciferase was linear with time, after an initial lag period of ˜30 min for recruitment of mRNA to ribosomes, completing the first polypeptide chain, and release of luciferase into the cytosol.

T2 sequence (P63073 28-217): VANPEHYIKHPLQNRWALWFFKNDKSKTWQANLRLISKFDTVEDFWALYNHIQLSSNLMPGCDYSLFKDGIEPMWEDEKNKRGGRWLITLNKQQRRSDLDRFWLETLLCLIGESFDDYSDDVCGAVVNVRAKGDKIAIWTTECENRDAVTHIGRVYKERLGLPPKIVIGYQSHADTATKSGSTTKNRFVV

CO[C@H]1[C@@H](O)[C@H](n2c[n+](C)c3c(=O)[nH]c(N)nc32)O[C@@H]1COP(=O)(O)OP(=O)(O)CP(=O)(O)OC[C@H]1O[C@@H](n2cnc3c(=O)[nH]c(N)nc32)[C@H](O)[C@@H]1O [m2^7,3′-OGppCH2pG, reference compound]
hydrolysis of capped mRNA by recombinant human Dcp2 in vitro (hDcp2 [1]): resistant to hydrolysis | hydrolysis of capped oligonucleotide by hDcp2 (hDcp2 [2]): resistant

Cn1c[n+]([C@@H]2O[C@H](COP(=O)(O)OP(=O)([O-])OP(=O)(O)OC[C@H]3O[C@@H](n4cnc5c(=O)[nH]c(N)nc54)[C@H](O)[C@@H]3O)[C@@H](O)[C@H]2O)c2nc(N)[nH]c(=O)c21 [m^7GpppG, reference compound]
ΔG° (murine eIF4E (28-217); binding free energy calculated from KAS): -9.35 ± 0.02 kcal/mol | KAS (murine eIF4E (28-217); equilibrium association constant, fluorescence quenching): 9.4 ± 0.4 µM⁻¹ | Resistance to enzymatic hydrolysis by DcpS (from C. elegans) (DcpS [3]): hydrolyzed | Resistance to enzymatic hydrolysis by DcpS (human) (DcpS [4]): hydrolyzed | Relative translational efficiency (HC11 cells): 1.00
